This is an account of results in ChEMBL document CHEMBL4118217, “Pyrrolinone derivatives as a new class of P2X3 receptor antagonists. Part 1: Initial structure-activity relationship studies of a hit from a high throughput screening” (Bioorg Med Chem Lett, 2018).

Structures are written as SMILES.

For one data set, the target named is T1, P2X purinoceptor 3 (Homo sapiens, UniProt P56373).
T1 sequence (P56373 whole entry): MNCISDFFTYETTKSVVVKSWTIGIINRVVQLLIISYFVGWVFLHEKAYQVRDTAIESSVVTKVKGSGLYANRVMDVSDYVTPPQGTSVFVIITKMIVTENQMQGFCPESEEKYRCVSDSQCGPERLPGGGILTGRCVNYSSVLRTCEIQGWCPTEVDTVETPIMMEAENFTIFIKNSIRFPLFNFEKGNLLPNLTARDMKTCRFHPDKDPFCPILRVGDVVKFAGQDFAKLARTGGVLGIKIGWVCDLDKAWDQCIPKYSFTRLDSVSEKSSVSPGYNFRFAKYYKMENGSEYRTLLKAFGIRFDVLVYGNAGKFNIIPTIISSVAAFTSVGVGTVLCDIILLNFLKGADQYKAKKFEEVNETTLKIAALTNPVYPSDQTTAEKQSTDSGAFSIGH

Another data set deals with Mus musculus. Briefly: Analgesic activity in iv dosed mouse assessed as inhibition of acetic acid-induced writhes. Type of data set: functional.
Another data set is described as follows: in vivo. The conditions noted are these: rat, iv, 0.5 mg/kg.
Data set [1] can be described thus: Half life in rat at 0.5 mg/kg, iv or 1 mg/kg, po. It counts as ADME, organism-based. The conditions noted are these: in vivo.
Data set [2] in a line: Oral bioavailability in rat at 1 mg/kg. Type of data set: ADME, organism-based. The conditions noted are these: in vivo.

As a reminder, the IC50 is the point on the concentration scale where inhibition reaches its midpoint. A high value points to weaker potency in that assay. As a reminder, the ED50 is the dose at which the effect has come halfway, by size or by number of responders. A word on the clearance: it is the volume of plasma or blood freed of the substance per unit of time. As usually defined, the half-life is how long it takes for the measured level to halve. By bioavailability is commonly meant the share of a dose that reaches the circulation, judged against a reference dose that is usually intravenous. A high value points to much systemic uptake.

For the compound `COc1ccc(C(=O)C2=C(O)C(=O)N(c3ccc(-c4noc(C)n4)cc3)C2c2ccccc2)cc1` (stereo unspecified), the IC50 at P2X purinoceptor 3 came to 100 nM. That is a sub-micromolar value. Same read-out and setting: the same measure for `COc1ccc(C(=O)C2=C(O)C(=O)N(c3ccc(C(F)(F)F)cc3)C2c2ccc(F)cc2)cc1` (stereo unspecified): 360 nM. Still for that read-out and setting: the same measure for `CCOC(=O)c1ccc(N2C(=O)C(NO)=C(C(=O)c3ccc(OC)cc3)C2c2ccccc2)cc1` (stereo unspecified): 4240 nM.

Regarding `COc1ccc(C(=O)C2=C([O-])C(=O)N(c3ccc(-c4ccon4)cc3)C2C2CCCCC2)cc1.[Na+]` (stereo unspecified), the ED50 in the data set on Mus musculus turned out to be 2.6 mg/kg.

On to `CCOC(=O)c1ccc(N2C(=O)C(OC)=C(C(=O)c3ccc(OC)cc3)C2c2ccccc2)cc1` (stereo unspecified), for which the IC50 on P2X purinoceptor 3 came to 9800 nM. `CCOC(=O)c1ccc(N2C(=O)C(O)=C(C(=O)Nc3ccc(OC)cc3)C2c2ccccc2)cc1` (stereo unspecified) gave an IC50 against P2X purinoceptor 3 of 3930 nM. In the case of `COc1ccc(C(=O)C2=C(O)C(=O)N(c3ccc(-c4nc(C)no4)cc3)C2C2CCCCC2)cc1` (stereo unspecified), in “in vivo”, the clearance is 3.4 mL/min/kg. Besides, the half-life in data set [1] was 1 h. The same compound came in with a bioavailability in data set [2] of 13.5%. As to `COc1ccc(C(=O)C2=C(O)C(=O)N(c3ccc(-c4ccon4)cc3)C2C2CCCCC2)cc1` (stereo unspecified) [listing 1 of 2 here], the inhibition result in the data set with Mus musculus was “Dose-dependent effect”. Turning to `COc1ccc(C(=O)C2=C(O)C(=O)N(c3ccc(-c4ccon4)cc3)C2C2CCCCC2)cc1` (stereo unspecified) [listing 2 of 2 here], the half-life in data set [1] is 1.3 h. Besides, the bioavailability in data set [2] was found to be 10.2%. The compound `CCOC(=O)c1ccc(N2C(=O)C(O)=C(C(=O)c3ccccc3)C2c2ccccc2)cc1` (stereo unspecified) yielded an IC50 against P2X purinoceptor 3 of 370 nM. Same read-out and setting: the same measure for `CCOC(=O)c1ccc(N2C(=O)C(O)=C(C(=O)c3ccc(OC)cc3)C2c2ccccc2Cl)cc1` (stereo unspecified): 90 nM. Still for that read-out and setting: the same measure for `CCOC(=O)c1ccc(N2CC(C(=O)c3ccc(OC)cc3)=C(O)C2=O)cc1`: > 10000 nM; for `CCOC(=O)c1ccc(N2C(=O)C(O)=C(C(=O)c3ccc(OC)cc3)C2c2ccccc2F)cc1` (stereo unspecified): 130 nM. Take `COc1ccc(C(=O)C2=C(O)C(=O)N(c3ccc(CO)cc3)C2c2ccccc2)cc1` (stereo unspecified): the IC50 at P2X purinoceptor 3 is > 10000 nM. On the same count and under the same terms, the same measure for `COc1ccc(C(=O)C2=C(O)C(=O)N(c3ccc(C(=O)O)cc3)C2c2ccccc2)cc1` (stereo unspecified): > 10000 nM; for `CCOC(=O)c1ccc(N2C(=O)C(O)=C(C(=O)c3ccc(OC)cc3)C2C2CCCCC2)cc1` (stereo unspecified): 10 nM; for `CCOC(=O)c1ccc(N2C(=O)C(O)=C(/C(=N/O)c3ccc(OC)cc3)C2c2ccccc2)cc1` (stereo unspecified): 560 nM. Still for that read-out and setting: the same measure for `CCOC(=O)c1ccc(N2C(=O)C(O)=C(NC(=O)c3ccc(OC)cc3)C2c2ccccc2)cc1` (stereo unspecified): 1370 nM.

As to `COc1ccc(C(=O)C2=C(O)C(=O)N(c3ccc(-c4nnc(C)o4)cc3)C2C2CCCCC2)cc1` (stereo unspecified), the clearance in the data set “in vivo” amounted to 5.5 mL/min/kg. Besides, it took 72 nM to reach half-maximal inhibition on P2X purinoceptor 3 (IC50). The compound also gave a half-life in data set [1] of 1.7 h. The bioavailability in data set [2] turned out to be 2.9%. For `CCOC(=O)c1ccc(N2C(=O)C(O)=C(Cc3ccc(OC)cc3)C2c2ccccc2)cc1` (stereo unspecified), the IC50 at P2X purinoceptor 3 is > 10000 nM. `COc1ccc(C(=O)C2=C(O)C(=O)N(c3ccc(-c4cc(C)no4)cc3)C2C2CCCCC2)cc1` (stereo unspecified) registered a clearance in “in vivo” of 6.2 mL/min/kg. For the same compound, at P2X purinoceptor 3, the IC50 worked out at 9 nM. Moreover, in data set [1], the half-life is 1.1 h. This compound came in with a bioavailability in data set [2] of 0.5%. In the case of `CCOC(=O)c1ccc(N2C(=O)C(O)=C(c3ccc(OC)cc3)C2c2ccccc2)cc1` (stereo unspecified), the IC50 against P2X purinoceptor 3 was > 10000 nM.

Take `COc1ccc(C(=O)C2=C(O)C(=O)N(c3ccc(-c4noc(C)n4)cc3)C2C2CCCCC2)cc1` (stereo unspecified): the clearance in “in vivo” was 5 mL/min/kg. Moreover, the IC50 against P2X purinoceptor 3 was found to be 19 nM. The compound also showed a half-life in data set [1] of 0.8 h. This compound also came in with a bioavailability in data set [2] of 7.1%.

With `CCOC(=O)c1ccc(N2C(=O)C(O)=C(C(=O)c3ccc(OC)cc3)C2c2ccc(F)cc2)cc1` (stereo unspecified), in the data set “in vivo”, the clearance was 37 mL/min/kg. On P2X purinoceptor 3, this compound returned an IC50 of 20 nM. The compound also gave a half-life in data set [1] of 0.1 h. For `CCOC(=O)c1ccc(N2C(=O)C(O)=C(C(=O)c3ccc(OC)cc3)C2c2cccc(F)c2)cc1` (stereo unspecified), inhibition against P2X purinoceptor 3 was half-maximal at 30 nM (IC50). On P2X purinoceptor 3, `CCOC(=O)c1ccc(N2C(=O)C(O)=C(C(=O)c3ccc(OC)cc3)C2c2ccc(Cl)cc2)cc1` (stereo unspecified) displayed a 50% inhibitory concentration (IC50) of 130 nM. Same read-out and setting: the same measure for `COc1ccc(C(=O)C2=C(O)C(=O)N(c3ccc(C(C)=O)cc3)C2c2ccccc2)cc1` (stereo unspecified): 3280 nM; for `CCOC(=O)c1ccc(N2C(=O)C(O)=C(C(C)=O)C2c2ccccc2)cc1` (stereo unspecified): 4790 nM. Same read-out and setting: the same measure for `COc1ccc(C(=O)C2=C(O)C(=O)N(c3ccccc3)C2c2ccccc2)cc1` (stereo unspecified): > 10000 nM; for `CCOC(=O)c1ccc(N2C(=O)C(O)=C(C(=O)c3ccc(OC)cc3)C2c2ccccc2)cc1` (stereo unspecified): 20 nM. On the same count and under the same terms, the same measure for `CCOC(=O)c1ccc(N2C(=O)C=C(C(=O)c3ccc(OC)cc3)C2c2ccccc2)cc1` (stereo unspecified): > 10000 nM. On to `COc1ccc(C(=O)C2=C(O)C(=O)N(c3ccc(-c4ncco4)cc3)C2C2CCCCC2)cc1` (stereo unspecified), for which the IC50 on P2X purinoceptor 3 was determined as 135 nM.
